From publication PMC11557314 (Frontiers in Pharmacology, 2024)
Like-named read-outs stand apart in the source and are kept apart here. Where no end group is shown, it is not given here. [ ]: non-standard residue; d: D form. βAla = NCCC(=O)O

Columns and labels:
hKOPr [1] = target: T1, hKOPr (Homo sapiens, UniProt P41145); assay: cell-based; type: cell-based; settings: HEK293, read-out: β-Arrestin recruitment, efficacy at hKOPr Emax
hKOPr [2] = assay: Biased factor calculation from GTPγS and PRESTO-Tango data; parameters: species or system human; settings: G-protein vs β-arrestin, DynA as reference; below 1 = β-arrestin bias
Excerpt: To perform biased factor analyses, we followed the step-by-step protocol described by [Nagi and Pineyro (2016)]. In short, curve fitting was used to calculate τ and Ka values for G-protein and β-arrestin pathway activation. Log(τ/Ka) ratios were subtracted by log(τ/Ka) of DynA as the reference to yield ΔLog(τ/Ka) values for each peptide. In a final step for each peptide, ΔLog (τ/Ka) values for G-protein pathway activation were subtracted from ΔLog(τ/Ka) values for β-arrestin pathway activation and vice versa to calculate ΔΔLog(τ/Ka). The biased factor is yielded by delogging ΔΔLog (τ/Ka).
To confidently identify a G-protein-biased peptide of interest, it is essential to keep in mind that the responses we collected through GTPγS and PRESTO-Tango assay are not solely determined by drug signaling properties but also by the way the cell and different assays “perceive” the generation of this response. These different “perceptions” of the pharmacological stimulus may themselves be responsible for an imbalance among signals from different pathways. To avoid this, and to be able to correctly estimate whether a peptide is indeed biased, we applied the method proposed by [Kenakin et al. (2012)], that is based on the operational method proposed by [Black and Leff (1983)]. This method takes into consideration receptor occupation by the agonist, communication of the pharmacological stimulus to the system, and the processing of the stimulus by the system that produces the response.

hKOPr [3] = target: T1, hKOPr; assay: biochemical; settings: for EC50: read-out: Potency at hKOPr EC50
hDOPr [4] = target: T2, hDOPr (Homo sapiens, UniProt P41143); assay: Competitive radio binding assay with [3H]-diprenorphine on hDOPr-CHO cell membranes
hDOPr [5] = target: T2, hDOPr; assay: [35S]GTPγS functional assay on hDOPr-CHO cell membranes; type: biochemical
Protocol: CHO cells stably transfected with human KOPr, MOPr, and DOPr (hKOPr-CHO, hMOPr-CHO, and hDOPr-CHO, respectively) were provided by Prof. Liu-Chen (Temple University, Philadelphia, United States). The cells were grown in Gibco™ Dulbecco’s minimal essential medium (DMEM) for hKOPr-CHO or Gibco™ DMEM/F-12 for hMOPr and hDOPr. Both media were supplemented with 10% FBS (Gibco™), GlutaMAX (100 μg/mL; Gibco™), penicillin/streptomycin (100 μg/mL; Gibco™), and geneticin (G418, 400 μg/mL; Gibco™). HEK 293 cells were grown in high-glucose DMEM supplemented with 10% FBS (Gibco™), GlutaMAX (100 μg/mL; Gibco™), and penicillin/streptomycin (100 μg/mL; Gibco™). Cell cultures were maintained in a Heracell™ 150i CO2 incubator at 37°C and 5.0% CO2.
Functional assays were conducted on hKOPr-CHO, hMOPr-CHO, and hDOPr-CHO cell membranes (see above). The membranes were prepared in a buffer containing 20 mM HEPES, 10 μM GDP, cell membrane (10–30 μg), and 0.05 nM [^35S]GTPγS. The buffer containing the cell membranes was incubated with an increasing concentration of the test peptide diluted in 1 × HEPES, pH 7.4, in a total volume of 1 mL, for 60 min at 25°C. The peptide solutions were replaced by diluents for untreated controls. Non-specific binding was determined using unlabeled 10 μM GTPγS. Samples were rapidly washed three times with Tris-HCl and filtered through glass fiber filters (GF/B Whatman). The bound radioactivity was measured by liquid scintillation (Carl Roth GmbH, Karlsruhe, Germany) counting on a Packard 1600 TR Tri-Carb Beta counter (Canberra, Belgium).

hKOPr [6] = target: T1, hKOPr; type: binding; settings: for Ki: read-out: Ki hKOPr
hMOPr = hMOPr (Homo sapiens, UniProt P35372); assay: Competitive radio binding assay with [3H]-DAMGO on hMOPr-CHO cell membranes; settings: read-out: Ki hMOPr; [3H]-DAMGO 1 nM, 60 min 25°C; mean ± SEM
hKOPr [7] = tested on: hKOPr; parameters: method as in Bedini et al., 2020; settings: result in words; ref Bedini et al., 2020; cited from earlier work
[8] = read-out: Efficacy at hKOPr Emax
[9] = read-out: Ki hDOPr, [3H]-diprenorphine 1 nM, 60 min 25°C, mean ± SEM

hMOPr, sequence (P35372 whole entry): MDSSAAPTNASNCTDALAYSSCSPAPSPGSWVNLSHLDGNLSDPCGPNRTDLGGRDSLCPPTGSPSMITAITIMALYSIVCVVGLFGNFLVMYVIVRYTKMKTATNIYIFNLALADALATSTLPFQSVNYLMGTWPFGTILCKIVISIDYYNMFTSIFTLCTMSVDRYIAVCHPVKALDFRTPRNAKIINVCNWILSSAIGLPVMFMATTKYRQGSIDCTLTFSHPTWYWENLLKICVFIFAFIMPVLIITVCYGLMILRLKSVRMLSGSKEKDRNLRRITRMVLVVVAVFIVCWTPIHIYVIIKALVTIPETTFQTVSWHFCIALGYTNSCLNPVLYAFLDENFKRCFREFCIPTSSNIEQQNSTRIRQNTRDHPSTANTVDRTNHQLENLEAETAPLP
T2 sequence (P41143 whole entry): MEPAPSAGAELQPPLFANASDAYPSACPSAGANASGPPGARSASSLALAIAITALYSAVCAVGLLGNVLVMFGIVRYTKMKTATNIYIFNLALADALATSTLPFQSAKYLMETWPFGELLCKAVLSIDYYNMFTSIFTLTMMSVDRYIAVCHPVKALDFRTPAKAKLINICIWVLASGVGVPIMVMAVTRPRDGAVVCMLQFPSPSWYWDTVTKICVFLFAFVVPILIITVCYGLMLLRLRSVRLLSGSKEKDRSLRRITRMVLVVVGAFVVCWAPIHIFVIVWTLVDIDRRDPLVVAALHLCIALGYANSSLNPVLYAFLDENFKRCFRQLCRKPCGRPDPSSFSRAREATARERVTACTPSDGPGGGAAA
T1 sequence (P41145 whole entry): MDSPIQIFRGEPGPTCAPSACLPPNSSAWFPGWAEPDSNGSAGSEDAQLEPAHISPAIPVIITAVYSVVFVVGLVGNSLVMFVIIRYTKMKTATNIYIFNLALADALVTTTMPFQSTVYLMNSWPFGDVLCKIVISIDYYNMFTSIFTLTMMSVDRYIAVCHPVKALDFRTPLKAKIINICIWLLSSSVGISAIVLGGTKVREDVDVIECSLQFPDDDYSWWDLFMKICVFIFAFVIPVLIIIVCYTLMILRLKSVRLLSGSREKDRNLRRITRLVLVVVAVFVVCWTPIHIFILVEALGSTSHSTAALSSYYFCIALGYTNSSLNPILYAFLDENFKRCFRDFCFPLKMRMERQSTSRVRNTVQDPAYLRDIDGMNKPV

| Compound | Emax (hKOPr [3]; [8]) | Selectivity DOPr/KOPr (hKOPr [6]) | Ki (hKOPr [6]) | Ki (hMOPr) | EC50 (hKOPr [3]) | Ki (hDOPr [4]; [9]) | Selectivity MOPr/KOPr (hKOPr [6]) | agonist category at hKOPr (GTPγS) (hKOPr [3]) | also measured |
| --- | --- | --- | --- | --- | --- | --- | --- | --- | --- |
| CC(C)C[C@H](NC(=O)[C@H](Cc1ccccc1)NC(=O)CNC(=O)CNC(=O)[C@@H](N)Cc1ccc(O)cc1)C(=O)N[C@@H](CCCNC(=N)N)C(=O)N[C@@H](CCCNC(=N)N)C(=O)N[C@@H](CCC(N)=O)C(=O)N[C@@H](Cc1ccccc1)C(=O)N[C@@H](CCCCN)C(=O)N[C@H](C(=O)N[C@H](C(=O)N[C@H](C(=O)O)[C@@H](C)O)C(C)C)C(C)C [DynB_WT, dynorphin B, reference compound] | 120 ± 1.5% |  |  |  |  |  |  |  | Emax (hKOPr [1]): 111 ± 5.3%; biased factor at hKOPr (hKOPr [2]): 0.8 ± 0.2; hKOPr % stim, stimulation of [35S]GTPγS binding (hKOPr [3]): 120 ± 1.5%; preference for hKOPr over hDOPr (GTPγS) (hKOPr [3]): 12 fold; preference for hKOPr over hMOPr (GTPγS) (hKOPr [3]): 6 fold; Emax (hKOPr [3]; read-out: Emax higher than DynA): 20%; Ki (hDOPr [4]): 80.2 ± 6.4 nM; EC50 (hDOPr [5]): 59.3 ± 6.7 nM; hDOPr % stim, stimulation of [35S]GTPγS binding (hDOPr [5]; Table 3, normalized to DynA, mean ± SEM): 104 ± 3.6% |
| FGGFLRRQFKVVT [DynB_Y1F] | 110 ± 5.5% | 44 | 37.3 nM | 217 ± 13.5 nM | 393 ± 47.3 nM | 1620 nM |  |  | potency for hKOPr as compared to DynB (GTPγS) (hKOPr [3]): strongly reduced potency |
| YGAFLRRHFKVVT [DynB_G3A/Q8H] | 74.9 ± 1.6% | 1,508 | 0.3 nM | 41.9 ± 1.3 nM | 6.77 ± 0.82 nM | 460 ± 44.2 nM | 137 | partial agonists |  |
| YGAFLRRQFAVVT [DynB_G3A/K10 A] | 84 ± 3.6% | 317 | 1.57 nM | 90.4 ± 7.6 nM | 16.7 ± 2.45 nM | 497 ± 105 nM | 58 |  |  |
| YGAFLRRQFKVVT [DynB_G3A] | 83.4 ± 5.5% | 149 | 2.13 nM | 82.3 ± 7.9 nM | 27.9 ± 8.72 nM | 317 ± 34.1 nM | 39 |  |  |
| YGAFSRRQFKVVT [DynB_G3A/L5S] | 92.5 ± 5.7% | 2,195 | 1.73 nM | 98.3 ± 5.9 nM | 116 ± 11.2 nM | 3790 nM | 57 |  | decrease of potency compared to DynB_WT (hKOPr [3]): more than 20 fold; potency for hKOPr as compared to DynB (GTPγS) (hKOPr [3]): strongly reduced potency |
| YGGFLRRAFKVVT [DynB_Q8A] | 125 ± 12.3% |  |  |  |  |  |  |  |  |
| YGGFLRRHFKVVT [DynB_Q8H] | 111.5 ± 0.9% | 507 | 0.21 nM | 7.7 ± 1.4 nM | 2.25 ± 0.47 nM | 106 ± 17.1 nM | 36 |  |  |
| YGGFLRRQFAVVT [DynB_K10 A] | 132 ± 3.9% |  |  |  |  |  |  |  |  |
| YGMFLRRHFKVVT [DynB_G3M/Q8H] | 42.1 ± 1.3% | 459 | 0.36 nM | 97.1 ± 15.8 nM | 5.43 ± 0.53 nM | 167 ± 19 nM | 268 | partial agonists |  |
| YGMFLRRQFKVVT [DynB_G3M] | 54.5 ± 1.8% | 141 | 0.61 nM | 117 ± 6.9 nM | 14.1 ± 4.17 nM | 85.3 ± 16.4 nM | 193 | partial agonists |  |
| YGMFSRRQFKVVT [DynB_G3M/L5S] | 52.6 ± 1.6% | 1,115 | 7.24 nM | 290 ± 17.9 nM | 170 ± 23.7 nM | 8080 nM | 40 | partial agonists | potency for hKOPr as compared to DynB (GTPγS) (hKOPr [3]): strongly reduced potency |
| cyclo(FG[βAla][dW]) [LOR17] |  |  |  |  |  |  |  |  | G-protein bias at the hKOPr (hKOPr [7]): strong G-protein bias |
